Test results taken from PMC13266984 (Journal of medicinal chemistry, 2026).

Key:
[1] = target: T1, OE19 (3A1) (Homo sapiens, UniProt P30838); experiment: Cellular ALDEFLUOR assay in OE19 cells (preferential ALDH3A1 expression)
T1 sequence (P30838 1-453): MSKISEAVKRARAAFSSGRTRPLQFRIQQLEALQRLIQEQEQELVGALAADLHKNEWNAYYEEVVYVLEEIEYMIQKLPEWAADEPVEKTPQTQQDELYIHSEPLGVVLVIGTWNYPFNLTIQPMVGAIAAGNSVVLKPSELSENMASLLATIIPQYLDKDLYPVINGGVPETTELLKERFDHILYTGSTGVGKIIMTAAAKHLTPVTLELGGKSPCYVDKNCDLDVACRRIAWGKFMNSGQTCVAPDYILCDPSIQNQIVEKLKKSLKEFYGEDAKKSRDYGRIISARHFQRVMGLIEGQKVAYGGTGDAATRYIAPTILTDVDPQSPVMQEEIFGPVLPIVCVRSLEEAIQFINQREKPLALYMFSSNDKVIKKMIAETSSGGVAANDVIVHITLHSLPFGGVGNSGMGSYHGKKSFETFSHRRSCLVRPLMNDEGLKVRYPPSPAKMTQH

[2] = target: T2, Human ALDH3A1 (Homo sapiens, UniProt P30838); experiment: ALDH3A1 biochemical assay (benzaldehyde/NADP+, diaphorase-resazurin readout, 1,536-well)
T2 sequence (P30838 1-453): T1 sequence (P30838 1-453)

[3] = Table S5, biochemical curve class
[4] = Table S4, biochemical curve class

Row | Structure (SMILES) | AC50 [1] | Cell_Efficacy ([1]; Table S5, OE19 cells) | Cell_CC-v2 ([1]; Table S5, cellular curve class) | Efficacy ([2]; Table S5, biochemical) | CC-v2 [2, 3] | AC50 [2] | Cell_Efficacy ([1]; Table S4, OE19 cells) | Cell_CC-v2 ([1]; Table S4, cellular curve class) | Efficacy ([2]; Table S4, biochemical) | CC-v2 [2, 4]
1 | O=C(Nc1ccncc1)c1ccc(CNC(=O)c2csc(N3CCN(c4cccc(C(F)(F)F)c4)CC3)n2)cc1 [NCGC01396478-01] | 6.31 µM | -114.29 | -2.1 | -22.34 | 4 | – | – | – | – | –
2 | O=C(NCc1ccc(Br)c(C(F)(F)F)c1)c1csc(N2CCN(c3cccc(C(F)(F)F)c3)CC2)n1 [NCGC01396480-01] | 1.36 µM | -77.80 | -1.4 | -96.06 | -1.1 | 0.0112 µM | – | – | – | –
3 | Cc1ccc(C)n1-c1ccc(CNC(=O)c2csc(N3CCN(c4cccc(C(F)(F)F)c4)CC3)n2)cc1 [NCGC01408046-01] | – | -23.84 | 4 | -91.30 | -1.1 | 15.8 µM | – | – | – | –
4 | Cc1cccc(CNC(=O)c2csc(N3CCN(c4cccc(C(F)(F)F)n4)CC3)n2)c1 [NCGC01210535-01] | 7.85 µM | – | – | – | – | 0.58 µM | -90.86 | -1.1 | -96.11 | -1.1
5 | O=C(NCc1ccc(Oc2ccc(F)cc2)cc1)c1csc(N2CCN(c3cccc(C(F)(F)F)c3)CC2)n1 [NCGC01407922-01] | 2.24 µM | -108.81 | -1.1 | -26.41 | -1.4 | 0.398 µM | – | – | – | –
6 | Cc1ccc(CNC(=O)c2csc(N3CCN(c4cccc(C(F)(F)F)c4)CC3)n2)cc1F [NCGC01407934-01] | 0.342 µM | -95.79 | -1.1 | -101.06 | -1.1 | 0.0282 µM | – | – | – | –
7 | Cc1ccccc1-c1cccc(CNC(=O)c2csc(N3CCN(c4cccc(C(F)(F)F)c4)CC3)n2)c1 [NCGC01407985-01] | 0.091 µM | -83.99 | -1.1 | -78.48 | -1.2 | 0.075 µM | – | – | – | –
8 | O=C(NCc1ccc(C#CC2CC2)cc1)c1csc(N2CCN(c3cccc(C(F)(F)F)c3)CC2)n1 [NCGC01407809-01] | 9.65 µM | -60.41 | -1.4 | -101.87 | -1.1 | 0.0141 µM | – | – | – | –
9 | O=C(NCc1cc(F)cc(Br)c1)c1csc(N2CCN(c3cccc(C(F)(F)F)c3)CC2)n1 [NCGC01397297-01] | 2.16 µM | -85.43 | -1.1 | -107.41 | -1.1 | 0.0036 µM | – | – | – | –
10 | N#Cc1cccc(CNC(=O)c2csc(N3CCN(c4cccc(C(F)(F)F)c4)CC3)n2)c1 [NCGC01397393-01] | 0.965 µM | -104.84 | -2.2 | -100.26 | -1.1 | 0.0022 µM | – | – | – | –
11 | O=C(NCc1cccc(COc2ccccc2)c1)c1csc(N2CCN(c3cccc(C(F)(F)F)c3)CC2)n1 [Compound 18] | 0.0431 µM | -79.42 | -1.1 | -100.33 | -1.1 | 0.0141 µM | – | – | – | –
12 | Cc1cccc(CNC(=O)c2csc(N3CCN(c4cc(Cl)c(Cl)c(Cl)c4)CC3)n2)c1 [NCGC01211545-01] | 0.39 µM | – | – | – | – | 0.58 µM | -73.43 | -1.2 | -72.19 | -1.2
13 | Cc1cccc(CNC(=O)c2csc(N3CCN(c4ccc(Br)cc4)CC3)n2)c1 [NCGC01211165-01] | 0.7 µM | – | – | – | – | 0.81 µM | -91.24 | -1.1 | -72.77 | -1.2
14 | COc1cc(N2CCN(c3nc(C(=O)NCc4cccc(C)c4)cs3)CC2)ccc1F [NCGC01211397-01] | 2.79 µM | – | – | – | – | 2.89 µM | -82.14 | -1.1 | -71.38 | -1.2
15 | O=C(COc1cccc(CNC(=O)c2csc(N3CCN(c4cccc(C(F)(F)F)c4)CC3)n2)c1)NC1CC1 [NCGC01407783-01] | 0.0316 µM | -92.90 | -1.3 | -80.39 | -1.1 | 0.398 µM | – | – | – | –
16 | Cc1cccc(CNC(=O)c2csc(N3CCN(c4ccc(OCCF)cc4)CC3)n2)c1 [NCGC01211173-01] | 1.4 µM | – | – | – | – | 3.24 µM | -87.33 | -1.1 | -45.43 | -1.2
17 | CC(C)(C)c1cccc(CNC(=O)c2csc(N3CCN(c4cccc(C(F)(F)F)c4)CC3)n2)c1 [NCGC01407765-01] | 0.282 µM | -76.28 | -1.2 | -37.12 | -1.2 | 0.447 µM | – | – | – | –
18 | CC(=O)c1ccc(CNC(=O)c2csc(N3CCN(c4cccc(C(F)(F)F)c4)CC3)n2)cc1 [NCGC01397292-01] | 0.683 µM | -111.50 | -2.1 | -100.00 | -1.1 | 0.02 µM | – | – | – | –
19 | Cc1cccc(CNC(=O)c2csc(N3CCN(c4cncc(Br)c4)CC3)n2)c1 [NCGC01212814-01] | – | – | – | – | – | 1.29 µM | 0.00 | 4 | -92.59 | -1.1
20 | Cc1cccc(CNC(=O)c2csc(N3CCN(c4c(Cl)cccc4Cl)CC3)n2)c1 [NCGC01211131-01] | 3.13 µM | – | – | – | – | 0.51 µM | -61.19 | -1.4 | -89.06 | -1.1
21 | O=C(NCc1cccc([S+](=O)([O-])C(F)(F)F)c1)c1csc(N2CCN(c3cccc(C(F)(F)F)c3)CC2)n1 [NCGC01397299-01] | 0.0794 µM | -61.99 | -1.2 | -37.47 | -1.2 | 0.447 µM | – | – | – | –
22 | O=C(NCc1ccc(C(F)(F)F)c(Cl)c1)c1csc(N2CCN(c3cccc(C(F)(F)F)c3)CC2)n1 [NCGC01407914-01] | 0.609 µM | -99.51 | -1.3 | -95.28 | -1.1 | 0.0282 µM | – | – | – | –
23 | O=C(NCc1ccc2c(c1)CNC2=O)c1csc(N2CCN(c3cccc(C(F)(F)F)c3)CC2)n1 [NCGC01397290-02] | – | 0.00 | 5 | -53.79 | -1.2 | 0.398 µM | – | – | – | –
24 | Cc1cccc(CNC(=O)c2csc(N3CCN(c4cc(F)cc(F)c4)CC3)n2)c1 [NCGC01211133-01] | 1.57 µM | – | – | – | – | 0.65 µM | -95.95 | -1.1 | -87.41 | -1.1
25 | CCOC(=O)Cc1ccc(N2CCN(c3nc(C(=O)NCc4cccc(C)c4)cs3)CC2)cc1 [NCGC01212809-01] | 3.93 µM | – | – | – | – | 3.24 µM | -80.26 | -1.1 | -99.09 | -1.1
